Series [1] deals with T1, FcDH (Gluconobacter thailandicus, UniProt A0ABQ0IZX0). Description: Bivalent metal ion specificity of FcDH. It is filed as biochemical, Gluconobacter oxydans IFO 3255.
In series [2] the target is T1, FcDH. Description: Oxidation products of substrates by purified FcDH, HPLC. The format is biochemical, Gluconobacter oxydans IFO 3255. The conditions noted are these: 0.5 g/dl substrate, NOX, catalase, 30° C., 16 hours. The method, then:
Among the substrates recognized by FcDH, the oxidation product of L-fucitol is L-fuculose, and the oxidation products of the other substrates were examined. The substrates used were D-arabitol, D-mannitol and D-sorbitol. A reaction solution containing 0.5 g/dl of the substrate, 50 mM Gly-NaOH (pH 9.5), 1 mM NAD, 30 mM FAD, 5 mM MgCl2, 0.6 U/ml purified FcDH, 0.2 U/ml NOX, and 0.1 mg/ml catalase was reacted at 30° C. for 16 hours, and analyzed by HPLC (FIG. 13).

Series [3] deals with T2, FcDH (L-fuculose-producing L-fucitol dehydrogenase) (Gluconobacter thailandicus, UniProt A0ABQ0IZX0).
T2 sequence (A0ABQ0IZX0 1-257): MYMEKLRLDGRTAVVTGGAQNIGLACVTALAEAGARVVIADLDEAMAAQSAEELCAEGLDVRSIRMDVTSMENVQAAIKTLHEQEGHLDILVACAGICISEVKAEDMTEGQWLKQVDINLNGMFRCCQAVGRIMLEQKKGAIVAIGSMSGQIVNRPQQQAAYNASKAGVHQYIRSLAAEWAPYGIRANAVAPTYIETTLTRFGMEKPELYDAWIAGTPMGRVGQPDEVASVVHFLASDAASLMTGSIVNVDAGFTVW
The series is described as follows: Substrate specificity of purified FcDH (kcat, Km by Lineweaver-Burk plot). Conditions: for substrate concentration at which a reduction of the specific activity (inhibition by the substrate) was observed: FIG. 12. It is filed as biochemical, Gluconobacter oxydans IFO 3255. The method, then:
The measurement was started when NAD was added. […] The measurement was performed consecutively three times.
Values of kcat and Km for each substrate were obtained by measuring the initial rate of the reaction with various substrate concentrations and drawing a Lineweaver-Burk plot of the results.
Lineweaver-Burk plots of the results in (A) and (B) are shown in FIG. 12 (C) and (D), respectively. The Km and kcat values were calculated from the range in which substrate inhibition was not observed, i.e., from a straight line represented by a broken line in FIG. 12 (C) and (D).

The target in the next series is NOX (NADH oxidase) (Gluconobacter thailandicus, UniProt A0ABQ0IUG6). The series is described as follows: NOX activity: NADH/NADPH and flavin coenzyme specificity. The format is biochemical, Gluconobacter oxydans IFO 3255. Conditions: for NOX activation effect of flavin coenzyme: flavin 0 to 300 μM, FIG. 19. The method, then: (§1) The change in absorbance in the first minute was taken as an initial rate, and the activity was calculated therefrom. The experimental group without the enzyme source was used as a blank. […] The measurement was taken three consecutive times. Their mean value was taken and is shown in the figure with the standard deviation.
The concentration of flavin in the reaction solution was 0 to 300 μM, and the others were adjusted to standard conditions.
The Km value for the substrate was calculated by measuring the activity with a variety of substrate concentrations and drawing a Lineweaver-Burk plot of the results.

For series [4], the system named is L-fucitol dehydrogenase in cell free extract of G. oxydans IFO 3255 sldA:Kmr mutant strain. The series is described as follows: NAD(P)-dependent L-fucitol oxidation activity in cell free extract. The format is biochemical, Gluconobacter oxydans IFO 3255 sldA:Kmr. Here is the method:
Subsequently, 1 ml of the medium was added to 50 ml of the same liquid medium, and cultured at 30° C. for 18 hours using a 500 ml Sakaguchi flask. The microbial cells were collected by centrifuging this medium, washed with 9 g/l of NaCl, and sonicated with 200 W for 10 minutes to yield the disrupted microbial cells. These cells were further centrifuged at 15,000 g for 15 minutes to yield the supernatant, which was then used as a cell-free extract. […] The experiment was also performed without L-fucitol as the control.

The procedure of series [5]:
as §1
As pH buffers, sodium citrate buffer (pH 3.6, 4.7, 5.7), sodium acetate buffer (pH 4.8, 5.7), potassium phosphate buffer (pH 6.4, 7.2), Tris-HCl buffer (pH 6.7, 7.6, 8.5), and CAPS-NaOH buffer (pH 8.3, 9.5) were used.
(§2) The activity of the purified preparations of rFcDH and rNOX that had been purified as described above was also measured.

Substrate in series [6]: NC(=O)c1ccc[n+]([C@@H]2O[C@H](COP(=O)([O-])OP(=O)(O)OC[C@H]3O[C@@H](n4cnc5c(N)ncnc54)[C@H](O)[C@@H]3O)[C@@H](O)[C@H]2O)c1
Description: NAD and NADP specificity of FcDH. The format is biochemical, Gluconobacter oxydans IFO 3255. Conditions: other: FcDH, Lineweaver-Burk plot, FIG. 14; pH 9.5; 30.0 °C.
Description: The activity was measured by adding NAD or NADP at various concentrations under standard conditions. The Km value for each coenzyme was calculated by drawing a Lineweaver-Burk plot of the results (FIG. 14 (B)).

How the values of series [7] were obtained: The measurement was started when NAD was added. The change in absorbance in the first minute was taken as the initial rate, and the activity was calculated therefrom. […] The measurement was performed consecutively three times. Their mean value was taken and is shown in the figure with the standard deviation.
As pH buffers, sodium acetate buffer (pH 4.8, 5.7), potassium phosphate buffer (pH 6.4, 7.2), Tris-HCl buffer (pH 6.7, 7.6, 8.5), CAPS-NaOH buffer (Sodium cyclohexylaminopropanesulfonate) (pH 8.3, 9.5) and sodium carbonate buffer (pH 10.1, 10.7, 11.2) were used.
A solution containing 0.1M pH buffer and 80 μg/ml purified FcDH was left to stand on ice for 30 minutes, and subsequently the solution was diluted to a final FcDH concentration of 1.6 μg/ml. The reaction was performed under standard conditions, and the remaining FcDH activity was measured.
A solution containing Gly-NaOH (pH 9.5), MgCl2, fucitol, and purified FcDH was preincubated at each temperature (25, 30, 37, 45, 55, or 65° C.) for 3 minutes, and then NAD that had been separately preincubated at each temperature was added thereto to start the reaction. The final concentrations in the reaction solution were adjusted to the standard conditions for activity measurement, and the final concentration of FcDH was 1.6 μg/ml.
A solution containing Gly-NaOH (pH 9.5) and 80 μg/ml purified FcDH was left to stand at 0, 25, 30, 37, 50 or 60° C. for 30 minutes. The solution was then diluted so that the final concentration of FcDH was 1.6 μg/ml. The reaction was performed under standard conditions, and the remaining FcDH activity was measured. The remaining activity of FcDH measured at each temperature is reported (FIG. 11) as the relative percentage as compared to the remaining activity when left to stand at 0° C.
as §2
This is another data set of the same source.

[8] abbreviates: 5 mM bivalent metal ion or EDTA.
[9] abbreviates: 5 mM bivalent metal ion or EDTA, relative to specific activity with MnCl2.
[10] abbreviates: substrate, Lineweaver-Burk plot.

Read-outs that look alike come from different tables or passages of the source. Where only a bound is given, the exact number is not on record here.

By Km is commonly meant the concentration of substrate that gives half-maximal velocity.

As to `[Ca+2].[Cl-].[Cl-]` [CaCl2], the “effect on FcDH activity” value at FcDH [1] (setting [8]) is given as “activation effect”. Moreover, the “RELATIVE ACTIVITY (%)” value at FcDH [1] (setting [9]) is listed as 89.9 ± 3.4%.
Consider `[Cl-].[Cl-].[Co+2]` [CoCl2], for which, on FcDH [1], the “RELATIVE ACTIVITY (%)” value came to 34.8 ± 1.1% and the “effect on FcDH activity” value is reported as “no effect”.
With `[Cl][Cu][Cl]` [CuCl2], at FcDH [1] (setting [8]), the “effect on FcDH activity” value is listed as “inhibitory effect”. Further, the “RELATIVE ACTIVITY (%)” value on FcDH [1] (setting [9]) came to 5.0 ± 0.5%.
Take `OC[C@@H](O)C(O)[C@H](O)CO` [D-ARABITOL, D-arabitol]: the “oxidation product identified by HPLC” value on FcDH [2] is “D-ribulose and D-xylulose”. For the same molecule, the “substrate concentration at which a reduction of the specific activity (inhibition by the substrate) was observed” value in series [3] is reported as no less than 5 mM.
With `OC[C@@H](O)[C@@H](O)[C@H](O)[C@H](O)CO` [D-MANNITOL, D-mannitol], the “oxidation product identified by HPLC” value on FcDH [2] is recorded as “D-fructose”.
On to `OC[C@@H](O)[C@@H](O)[C@H](O)[C@@H](O)CO` [D-SORBITOL, D-sorbitol], for which, at FcDH [2], the “oxidation product identified by HPLC” value is “L-sorbose”.
On to `Cc1cc2nc3c(=O)[nH]c(=O)nc-3n(C[C@H](O)[C@H](O)[C@H](O)COP(=O)(O)O)c2cc1C` [FMN], for which, at NOX (NADH oxidase), the “NOX activation effect of flavin coenzyme” value is on record as “relatively weaker”.
For the molecule `OCC(O)CO` [GLYCEROL, glycerol], in series [3] (setting [10]), the Kcat worked out at 0.9 U · mg−1 and the Km came to 10.1 mM.
`C[C@H](O)[C@@H](O)[C@@H](O)[C@H](O)CO` [L-FUCITOL, L-fucitol]: the Dehydrogenase activity in series [4] (coenzyme NAD, pH 6.0) is on record as 3.1 ×10^−3 U/mg; in series [4] (coenzyme NAD, pH 8.8) it was 18.4 ×10^−3 U/mg; in series [4] (coenzyme NADP, pH 6.0), 0.0 ×10^−3 U/mg; in series [4] (coenzyme NADP, pH 8.8), 1.9 ×10^−3 U/mg. Also, the “substrate concentration at which a reduction of the specific activity (inhibition by the substrate) was observed” value in series [3] was no less than 100 mM.
Consider `[Cl-].[Cl-].[Mg+2]` [MgCl2], for which, on FcDH [1] (setting [8]), the “effect on FcDH activity” value was “activation effect”. For the same molecule, the “RELATIVE ACTIVITY (%)” value on FcDH [1] (setting [9]) turned out to be 93.7 ± 2.9%.
In the case of `[Cl][Mn][Cl]` [MnCl2], the “effect on FcDH activity” value on FcDH [1] (setting [8]) is listed as “activation effect”. Moreover, the “RELATIVE ACTIVITY (%)” value on FcDH [1] (setting [9]) was found to be 100.0 ± 6.9%.
Take `NC(=O)C1=CN([C@@H]2O[C@H](COP(=O)(O)OP(=O)(O)OC[C@H]3O[C@@H](n4cnc5c(N)ncnc54)[C@H](OP(=O)(O)O)[C@@H]3O)[C@@H](O)[C@H]2O)C=CC1` [NADPH]: the “NOX activity with NADPH as the substrate” value on NOX (NADH oxidase) (data not shown) is “no significant activity”.
As for `[Cl][Ni][Cl]` [NiCl2], the “effect on FcDH activity” value at FcDH [1] (setting [8]) is “no effect”. Further, the “RELATIVE ACTIVITY (%)” value on FcDH [1] (setting [9]) stood at 42.4 ± 0.7%.
Consider `O=S(=O)([O-])[O-].[Zn+2]` [ZnSO4], for which the “effect on FcDH activity” value at FcDH [1] (setting [8]) was “inhibitory effect”. Also, the “RELATIVE ACTIVITY (%)” value at FcDH [1] (setting [9]) was found to be 11.7 ± 0.5%.
With `Cc1cc2nc3c(=O)[nH]c(=O)nc-3n(C[C@H](O)[C@H](O)[C@H](O)CO)c2cc1C` [riboflavin], on NOX (NADH oxidase), the “NOX activation effect of flavin coenzyme” value was “NOX activation effect was observed”.

B1: NOX: NADH oxidase purified from G. oxydans IFO 3255, SEQ ID NO:18 (protein)
chain: MTILNEQDFRRAMSHFATGVAVVTAKGSEGEQGATISALTSVSLDPLLLLICLHRGSSTYKAIAEAGRFGLSILNNSHKDVAMLFASRTADKFGSDVVVRAEDGTAFIDGALVQMHCELVETFQGGTHALFMARPTSITVRDEAPLLYFQGQLGVEA
modifications: Gluconobacter oxydans
On to B1, for which, in series [5] (0.5 h), the “remaining activity (temperature stability)” value is recorded as no less than 80%. The “pH of maximum specific activity” value in series [5] (FIG. 15, 30° C.) is on record as 5.7. In series [5] (FIG. 17, pH 8.0), the “temperature of maximum specific activity” value was 37 °C. For the same molecule, in series [5] (buffer, 0.5 h, pH 8.8), the “remaining activity (pH stability)” value is no less than 80%. For the same molecule, in series [5] (purified preparation, 0.2 mM NADH, 30 μM FAD, pH 8.0, 30° C.), the “specific activity of NOX” value is recorded as 196 U/mg.

B2: FcDH (Gluconobacter thailandicus NBRC 3257) (protein)
chain: MYMEKLRLDGRTAVVTGGAQNIGLACVTALAEAGARVVIADLDEAMAAQSAEELCAEGLDVRSIRMDVTSMENVQAAIKTLHEQEGHLDILVACAGICISEVKAEDMTEGQWLKQVDINLNGMFRCCQAVGRIMLEQKKGAIVAIGSMSGQIVNRPQQQAAYNASKAGVHQYIRSLAAEWAPYGIRANAVAPTYIETTLTRFGMEKPELYDAWIAGTPMGRVGQPDEVASVVHFLASDAASLMTGSIVNVDAGFTVW
Regarding B2, the Km in series [6] was found to be 0.20 mM.

B3: FcDH: L-fuculose-producing L-fucitol dehydrogenase purified from G. oxydans IFO 3255, SEQ ID NO:16 (protein)
chain: MYMEKLRLDGRTAVVTGGAQNIGLACVTALAEAGARVVIADLDEAMAAQSAEELCAEGLDVRSIRMDVTSMENVQAAIKTLHEQEGHLDILVACAGICISEVKAEDMTEGQWLKQVDINLNGMFRCCQAVGRIMLEQKKGAIVAIGSMSGQIVNRPQQQAAYNASKAGVHQYIRSLAAEWAPYGIRANAVAPTYIETTLTRFGMEKPELYDAWIAGTPMGRVGQPDEVASVVHFLASDAASLMTGSIVNVDAGFTVW
modifications: Gluconobacter oxydans
As to B3, the “remaining activity (temperature stability)” value in series [7] (0.5 h) is recorded as no less than 80%. Besides, the “pH of maximum specific activity” value in series [7] (FIG. 8, 30° C.) is 9.5. For the same molecule, the “temperature of maximum specific activity” value in series [7] (FIG. 10, pH 9.5) was found to be 37 °C. For the same molecule, the “remaining activity (pH stability)” value in series [7] (buffer, 0.5 h, pH 7.2) is given as no less than 80%. The “specific activity of FcDH” value in series [7] (purified preparation, 10 mM L-fucitol, 1 mM NAD, pH 9.5, 30° C.) was 7.8 U/mg.

The values are drawn from patent US7575910B2, “Method for producing L-fuculose and method for producing L-fucose” (priority 2004, dated 2009).
